A short description of test [1]: Inhibitory concentration at which 50% decrease in the activity of Squalene epoxidase and Oxidosqualene cyclase in pig liver microsomes. Set-up: species or system Sus scrofa, Microsome. For orientation: Liver microsomes are vesicles of endoplasmic reticulum, rich in cytochrome P450 enzymes.
Test [2] is described as follows: Inhibitory concentration at which 50% decrease in the activity of Squalene epoxidase and Oxidosqualene cyclase in pig liver microsomes; NI means no inhibition. Set-up: species or system Sus scrofa, Microsome.
A short description of test [3]: Inhibitory concentration at which 50% decrease in the activity of Squalene epoxidase in pig liver microsomes; NI means no inhibition.

Each structure is given as a SMILES string. A value given as a limit tells only on which side of the number the result lay.

As usually defined, the IC50 is the midpoint of a concentration-inhibition curve. Low values mean greater potency in that assay, high ones weaker potency in that assay.

For `CC(C)=CCC/C(C)=C/CC/C(C)=C/CC/C=C(\C)CC/C=C(\C)CC/C=C/[N+](=O)[O-]`, the IC50 in test [1] is > 400 µM.
Turning to `CC(C)=CCC/C(C)=C/CC/C(C)=C/CC/C=C(\C)CC/C=C(\C)CC/C=N/O`, the IC50 entry in test [2] and in test [3] was “Not Active” throughout.
`CC(C)=CCC/C(C)=C/CC/C(C)=C/CC/C=C(\C)CC/C=C(\C)CCC(O)C[N+](=O)[O-]` (stereo not given) showed an IC50 in test [1] of 200 µM.
Same read-out and setting: for `CC(C)=CCC/C(C)=C/CC/C(C)=C/CC/C=C(\C)CC/C=C(\C)CCCN(C)O` the value was 5 µM.

The record behind these values is ChEMBL document CHEMBL1126509, “Trisnorsqualene methyl hydroxylamine: a potent dual inhibitor of mammalian squalene epoxidase and oxidosqualene cyclase” (Bioorg Med Chem Lett, 1993).
